According to the supplement of paper PMC12317010:

Assay: collision cross section in nitrogen (drift tube, single-field); higher = larger gas-phase ion size
[1] = ion type: [M+H], ion source: ESI, ion mode: Positive
[2] = ion type: [M-H], ion source: ESI, ion mode: Negative
[3] = ion type: [M+H], ion source: APCI, ion mode: Positive
[4] = ion type: [M+], ion source: APCI, ion mode: Positive
[5] = ion type: [M+Na], ion source: ESI, ion mode: Positive
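Also: chemical standards at 10 µM analysed by drift tube IMS-QTOF MS in about 3.95 torr nitrogen, mean of duplicate injections differing ≤1%, mass error below 10 ppm.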

| Compound | collision cross section in nitrogen [1] | collision cross section in nitrogen [2] | collision cross section in nitrogen [3] | collision cross section in nitrogen [4] | collision cross section in nitrogen [5] |
| --- | --- | --- | --- | --- | --- |
| CC1=NNC(=O)C1 [3-Methyl-5-pyrazolone] | 119.1 Å² | 117.9 Å² | – | – | – |
| CC(=O)CC(=O)Nc1ccc2[nH]c(=O)[nH]c2c1 [3-Oxo-N-(2-oxo-2,3-dihydro-1H-benzimidazol-5-yl)butanamide] | – | 154.4 Å² | – | – | – |
| Oc1cccc(-c2ccccc2)c1 [3-Phenylphenol] | – | 140 Å² | – | – | – |
| Nc1cccnc1 [3-Pyridinamine] | 115.2 Å² | – | 115 Å² | – | – |
| Oc1cccnc1 [3-Pyridinol] | 117.3 Å² | 114.6 Å² | – | – | – |
| CCCCCCCCCCCSCC(=O)O [3-Thiatetradecanoic acid] | – | 162.7 Å² | – | – | – |
| CC(C)(C)c1cc(CCC(=O)NN)cc(C(C)(C)C)c1O [3-[3,5-DI(tert-butyl)-4-hydroxyphenyl]propanohydrazide] | – | 174.5 Å² | – | – | 179.3 Å² |
| CCN(CCC#N)c1ccccc1 [3-[Ethyl(phenyl)amino]propanenitrile] | 139.3 Å² | – | 138.5 Å² | – | – |
| CN(C)CCCNCCC#N [3-{[3-(Dimethylamino)propyl]amino}propanenitrile] | 131.9 Å² | – | 130.8 Å² | – | – |
| COc1cc(NC(=O)CC(C)=O)c(OC)cc1Cl [4'-Chloro-2',5'-dimethoxyacetoacetanilide] | 160.8 Å² | 161.1 Å² | – | 156.7 Å² | 168.5 Å² |
| CC(c1ccc(O)cc1)(c1ccc(O)cc1)c1ccc(O)cc1 [4,4',4''-Ethane-1,1,1-triyltriphenol] | – | 184.3 Å² | – | – | – |
| CC(c1ccccc1)(c1ccc(O)cc1)c1ccc(O)cc1 [4,4'-(1-Phenylethylidene)bisphenol] | – | 180 Å² | – | – | – |
| CC(C)CC(C)(c1ccc(O)cc1)c1ccc(O)cc1 [4,4'-(4-Methylpentane-2,2-diyl)diphenol] | – | 175.3 Å² | – | – | – |
| Oc1ccc(C2(c3ccc(O)cc3)c3ccccc3-c3ccccc32)cc1 [4,4'-(9H-Fluorene-9,9-diyl)diphenol] | – | 194.8 Å² | – | – | – |
| C1CN(CCOCCN2CCOCC2)CCO1 [4,4'-(Oxydiethylene)bis(morpholine)] | 152.2 Å² | – | 151.8 Å² | – | 156.9 Å² |
| Nc1ccc(Cc2ccc(N)cc2)cc1 [4,4'-Diaminobiphenyl methane] | 163.1 Å² | – | 163.3 Å² | – | – |

| Compound | collision cross section in nitrogen [1] | collision cross section in nitrogen [2] | collision cross section in nitrogen [3] | collision cross section in nitrogen [4] | collision cross section in nitrogen [5] |
| --- | --- | --- | --- | --- | --- |
| CC(C)(C)c1cc(Cc2cc(C(C)(C)C)c(O)c(C(C)(C)C)c2)cc(C(C)(C)C)c1O [4,4'-Methylenebis(2,6-di-t-butylphenol)] | – | 221.2 Å² | – | – | – |
| c1cc(N(CC2CO2)CC2CO2)ccc1Cc1ccc(N(CC2CO2)CC2CO2)cc1 (configuration not stated) [4,4'-Methylenebis(N,N-diglycidylaniline)] | 215.2 Å² | – | 215.7 Å² | – | 199.7 Å² |
| CN(C)c1ccc(Cc2ccc(N(C)C)cc2)cc1 [4,4'-Methylenebis(N,N-dimethylaniline)] | 174.8 Å² | – | 175.3 Å² | – | – |
| Cc1cc(Cc2ccc(N)c(C)c2)ccc1N [4,4'-Methylenebis(o-toluidine)] | 171.2 Å² | – | 179.1 Å² | – | – |
| Nc1ccc(Oc2ccc(N)cc2)cc1 [4,4'-Oxydianiline] | 160.7 Å² | – | 167.4 Å² | 146.6 Å² | – |
| Cc1cc(C(C)(C)c2cc(C)c(O)c(C)c2)cc(C)c1O [4,4'-Propane-2,2-diylbis(2,6-dimethylphenol)] | – | 182.9 Å² | – | – | – |
| Nc1ccc(Sc2ccc(N)cc2)cc1 [4,4'-Thiodianiline] | 164.4 Å² | – | 164.9 Å² | 148.1 Å² | – |
| Nc1ccc(-c2ccc(N)cc2)cc1 [4,4′-Diamino-1,1′-biphenyl] | 157 Å² | – | 156.9 Å² | 139.4 Å² | – |
| CC(C)(C)CC(C)(C)c1ccc(O)cc1 [4-(1,1,3,3-Tetramethylbutyl)phenol] | – | 157.1 Å² | – | – | – |
| CC(C)(C)c1ccc(O)cc1 [4-(1,1-Dimethylethyl)phenol] | – | 139.5 Å² | – | – | – |
| CCOc1cc([N+](=O)[O-])c(OCC)cc1N1CCOCC1 [4-(2,5-Diethoxy-4-nitrophenyl)morpholine] | 173.2 Å² | – | 173.1 Å² | – | – |
| CCC(C)(C)c1ccc(O)cc1 [4-(2-Methylbutan-2-yl)phenol] | – | 143.8 Å² | – | – | – |
| c1cc(N(CC2CO2)CC2CO2)ccc1OCC1CO1 (configuration not stated) [4-(Diglycidylamino)phenyl glycidyl ether] | 167 Å² | – | 167.5 Å² | – | 161.7 Å² |
| CC1(CO)CN(c2ccccc2)NC1=O (configuration not stated) [4-(Hydroxymethyl)-4-methyl-1-phenylpyrazolidin-3-one] | – | – | – | 143.2 Å² | – |
| CN(CCCC(O)c1cccnc1)N=O (configuration not stated) [4-(Methylnitrosamino)-1-(3-pyridyl)-1-butanol] | 146.4 Å² | – | 146.4 Å² | – | 152.5 Å² |
| O=C(Oc1ccc(Br)cc1)N1CCN2CCC1CC2 [4-Bromophenyl 1,4-diazabicyclo(3.2.2)nonane-4-carboxylate] | 178.5 Å² | – | 177.7 Å² | – | – |

Further lines, results first:

| collision cross section in nitrogen [1] | collision cross section in nitrogen [2] | collision cross section in nitrogen [3] | collision cross section in nitrogen [4] | collision cross section in nitrogen [5] | Compound |
| --- | --- | --- | --- | --- | --- |
| 143.6 Å² | – | 143.2 Å² | 139.3 Å² | – | Cc1cccc(Nc2ccccc2)c1 [3-Methyl-N-phenylaniline] |
| – | 125.2 Å² | – | – | – | Cc1c[nH]c2ccccc12 [3-Methylindole] |
| – | 131.2 Å² | – | – | – | O=C(O)c1cccc([N+](=O)[O-])c1 [3-Nitrobenzoic acid] |
| – | 155.6 Å² | – | – | – | O=C(O)c1cccc(Oc2ccccc2)c1 [3-Phenoxybenzoic acid] |
| – | 136.9 Å² | – | – | – | CC(C)(C)c1cccc(O)c1 [3-tert-Butylphenol] |
| – | 144.9 Å² | – | – | – | CC(=O)Nc1ccc(C(=O)CCl)cc1 [4'-(Chloroacetyl)acetanilide] |
| – | 143.8 Å² | – | – | – | CC(=O)CC(=O)Nc1ccc(Cl)cc1 [4'-Chloroacetoacetanilide] |
| 156.4 Å² | – | – | 136.9 Å² | – | Nc1ccc(-c2ccc(F)cc2)cc1 [4'-Fluoro-4-aminodiphenyl] |
| – | 166.5 Å² | – | – | – | N#Cc1ccc(C(c2ccc(C#N)cc2)n2cncn2)cc1 [4,4'-(1H-1,2,4-Triazol-1-ylmethylene)dibenzonitrile] |
| 219.9 Å² | 221 Å² | 218.8 Å² | 219.4 Å² | – | CCCCCCCCc1ccc(Nc2ccc(CCCCCCCC)cc2)cc1 [4,4'-Dioctyldiphenylamine] |
| 145.7 Å² | – | 146.1 Å² | – | – | c1cc(CCCc2ccncc2)ccn1 [4,4'-Propane-1,3-diyldipyridine] |
| 182.5 Å² | – | – | – | 197.2 Å² | C=CCc1cc(S(=O)(=O)c2ccc(O)c(CC=C)c2)ccc1O [4,4'-Sulfonylbis[2-(prop-2-en-1-yl)phenol]] |
| – | 177.5 Å² | – | – | – | CC(CCC(=O)O)(c1ccc(O)cc1)c1ccc(O)cc1 [4,4-Bis(4-hydroxyphenyl)valeric acid] |
| 151.6 Å² | 146.2 Å² | – | – | – | CC1=NN(c2ccc(C(=O)O)cc2)C(=O)C1 [4-(3-Methyl-5-oxo-4,5-dihydro-1H-pyrazol-1-yl)benzoic acid] |
| 146.1 Å² | – | 145.9 Å² | – | – | c1ccc(CCCc2ccncc2)cc1 [4-(3-Phenylpropyl)pyridine] |
| 171.8 Å² | 174.8 Å² | 180.9 Å² | – | 187.9 Å² | CC(C)Oc1ccc(S(=O)(=O)c2ccc(O)cc2)cc1 [4-((4-Isopropoxyphenyl)sulfonyl)phenol] |
| 140.3 Å² | – | 139.4 Å² | – | – | CCN(CC)c1ccc(C=O)cc1 [4-(Diethylamino)benzaldehyde] |
| 143.7 Å² | 147 Å² | 142.6 Å² | – | – | CCN(CC)c1ccc(C=O)c(O)c1 [4-(Diethylamino)salicylaldehyde] |
| 185.2 Å² | – | 185.9 Å² | – | – | CCCCC(CC)COC(=O)c1ccc(N(C)C)cc1 (configuration not stated) [4-(Dimethylamino)benzoic acid 2-ethylhexyl ester] |
| – | 169 Å² | – | 167.2 Å² | 180.5 Å² | COc1cc(S(=O)(=O)Nc2ccccc2)c(OC)cc1N [4-Amino-2,5-dimethoxy-N-phenylbenzenesulfonamide] |
| – | 125 Å² | – | – | – | CC(=O)c1ccc(N)cc1 [4-Aminoacetophenone] |
| 126.5 Å² | – | 126.4 Å² | – | – | NC(=O)c1ccc(N)cc1 [4-Aminobenzamide] |
| – | 134.5 Å² | – | – | – | Nc1ccc(S(=O)(=O)O)cc1 [4-Aminobenzenesulfonic acid] |
| – | 147.4 Å² | – | 140.4 Å² | – | Oc1ccc(Nc2ccccc2)cc1 [4-Anilinophenol] |
| 149.8 Å² | – | – | – | – | CCCCc1ccc(N)cc1 [4-Butylaniline] |
| 153.5 Å² | – | – | – | – | CCCCOc1ccc(N)cc1 [4-Butyloxyaniline] |
